Laboratory results published in article PMC4129108, “The natural triterpene 3β,6β,16β-trihydroxy-lup-20(29)-ene obtained from the flowers of Combretum leprosum induces apoptosis in MCF-7 breast cancer cells” (BMC Complementary and Alternative Medicine, 2014).

Tested on: S. cerevisiae EG133 (sod1Δsod2Δ)
Test: Yeast survival assay, EG133 (sod1Δsod2Δ)
Format: cell-based, Saccharomyces cerevisiae
Conditions: for survival (percentage in relation to negative control): STAT cells, 1 h in PBS 30°C
Method: Media, solutions and buffers were prepared according to Burke et al.. YPD medium (0.5% yeast extract, 2% peptone, 2% glucose) was used for routine growth. Synthetic medium SC (0.67% yeast nitrogen base, 0.1% ammonium sulfate, 2% glucose) supplemented with the appropriate amino acids and bases ([…]) was used for the detection of mutations.
Stationary phase (STAT) cultures were obtained by inoculation of a single colony into liquid YPD. We chose to work in the stationary phase of growth because this resembles most cells of multicellular organisms in important aspects: (i) most energy comes from mitochondrial respiration; (ii) the cells have left the active cell cycle and have entered the Go phase; and (iii) damage accumulates over time.
STAT cells (1 × 10^8 cells/mL) were exposed to TTHL (10–500 μg/mL) and incubated under growth conditions for 1 h in PBS at 30°C. Cells were then washed and treated with H2O2 (5 mM) in PBS for another hour. Suitable aliquots were plated in triplicate on solid YPD (2–3 days, 30°C) and colony-forming units were counted. Sensitivity was expressed as a percentage of survival in relation to the negative control (solvent).

Question: Which “survival (percentage in relation to negative control)” value (TTHL 10 μg/mL) does the source give for `C=C(C)[C@@H]1CC[C@@]2(C)[C@H]1[C@H]1CC[C@@H]3[C@@]4(C)CC[C@H](O)C(C)(C)[C@@H]4[C@H](O)C[C@@]3(C)[C@]1(C)C[C@@H]2O` [TTHL, 3β,6β,16β-trihydroxy-lup-20(29)-ene] here?
Answer: 79.35 ± 2.19 %

Question: What about the “survival (percentage in relation to negative control)” value (TTHL 50 μg/mL) of the same compound?
Answer: 67.85 ± 10.54 %

Question: And the “survival (percentage in relation to negative control)” value (TTHL 100 μg/mL)?
Answer: 58.15 ± 3.89 %

Question: And the “survival (percentage in relation to negative control)” value (TTHL 500 μg/mL)?
Answer: 41.45 ± 4.03 %

Question: And the “sensitivity of the strain to TTHL (in words)” value (deficient in superoxide dismutase)?
Answer: hypersensitive
